Among the test systems are BT-549 breast; EKVX NSCLC; LOX IMVI melanoma; M14 melanoma; NCI-H226 lung; NCI-H522 lung; NCI/ADR-RES ovarian; OVCAR-5 ovarian; OVCAR-8 ovarian; SK-MEL-28 melanoma.
What all share (test): inhibition of tumour cell growth, NCI panel, 48 h

GI50 and TGI data for 16 molecules are collected here from PubChem BioAssay (NCI).

The structures appear in SMILES notation. Where “and” joins values, the source holds several entries; their conditions need not be identical. Equal entries are not always repeated.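 48-hour exposure; five concentrations; linearly interpolated endpoints. GI50 = concentration required for 50% inhibition of growth. The concentration for full growth arrest is given as TGI.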 Where a SMILES comes first, the peptide text is derived from it. [ ]: non-standard residue; d: D form. 2Nal = N[CH](Cc1ccc2ccccc2c1)C(=O)O

Consider `CN(C)CCCC1(c2ccc(F)cc2)OCc2cc(-c3ccc4cc[nH]c4c3)ccc21` (stereo not drawn), for which the GI50 is 2.35 µM with BT-549 breast; 2.04 µM in the experiment on EKVX NSCLC; 1.78 µM in the experiment with LOX IMVI melanoma; 1.88 µM in the experiment with M14 melanoma; 10.7 µM in the experiment on NCI-H226 lung; 2.07 µM with NCI-H522 lung. For the same molecule, the GI50 in the experiment on NCI/ADR-RES ovarian was 2.21 µM; in the experiment on OVCAR-5 ovarian, 1.95 µM; in the experiment on OVCAR-8 ovarian it was 3.32 µM; with SK-MEL-28 melanoma, 1.8 µM. Besides, the TGI in the experiment with BT-549 breast was determined as 7.62 µM; with EKVX NSCLC, 5 µM; with LOX IMVI melanoma it was 3.27 µM; in the experiment on M14 melanoma, 3.82 µM; with NCI-H226 lung, 29.3 µM; in the experiment with NCI-H522 lung, 4.49 µM. Further, the TGI came out at 5.31 µM in the experiment with NCI/ADR-RES ovarian, 4.3 µM with OVCAR-5 ovarian, 13.8 µM in the experiment on OVCAR-8 ovarian and 3.36 µM in the experiment with SK-MEL-28 melanoma.

For `O=C1OC(c2ccc([N+](=O)[O-])cc2)=N/C1=C\c1ccc(O)cc1`, the TGI with BT-549 breast, in the experiment with EKVX NSCLC, in the experiment with LOX IMVI melanoma, with M14 melanoma, with NCI-H226 lung and in the experiment with NCI-H522 lung was more than 100 µM each time. For the same molecule, the TGI with OVCAR-5 ovarian, in the experiment with OVCAR-8 ovarian and with SK-MEL-28 melanoma was more than 100 µM in each case.

For the molecule `C[C@]12CC[C@@H]3c4ccc(O)cc4CC[C@H]3[C@@H]1CC[C@@H]2NS(=O)(=O)c1cccc(Br)c1`, the GI50 in the experiment on BT-549 breast was 3.05 µM; in the experiment on LOX IMVI melanoma, 3.13 µM; with M14 melanoma, 3.69 µM; with NCI-H226 lung it was 3.19 µM; in the experiment on NCI-H522 lung, 2.36 µM; in the experiment with NCI/ADR-RES ovarian, 3.14 µM. Also, the GI50 was 4.09 µM in the experiment on OVCAR-5 ovarian, 3.98 µM in the experiment on OVCAR-8 ovarian and 4.21 µM with SK-MEL-28 melanoma. Moreover, the TGI in the experiment with BT-549 breast came to 10.3 µM; with LOX IMVI melanoma, 11.6 µM; in the experiment with M14 melanoma, 13.7 µM; with NCI-H226 lung, 15.6 µM; in the experiment with NCI-H522 lung, 11.4 µM; in the experiment with NCI/ADR-RES ovarian it was 13.6 µM. Moreover, the TGI stood at 16.3 µM in the experiment with OVCAR-5 ovarian, 16.7 µM in the experiment with OVCAR-8 ovarian and 15.9 µM in the experiment with SK-MEL-28 melanoma.

Turning to `O=C(O)[C@@H]1C[C@@H](O)CN1`, the TGI in the experiment on BT-549 breast, in the experiment on EKVX NSCLC, in the experiment with LOX IMVI melanoma, in the experiment on M14 melanoma, in the experiment on NCI-H226 lung and in the experiment on NCI/ADR-RES ovarian was more than 100 µM in each case. Further, the TGI in the experiment with OVCAR-5 ovarian, in the experiment with OVCAR-8 ovarian and in the experiment on SK-MEL-28 melanoma was more than 100 µM in each case.

As for `O=[N+]([O-])c1ccc2nc(N/N=C/c3ccc(O)cc3)sc2c1`, the GI50 in the experiment on BT-549 breast is 12.3 µM; in the experiment with EKVX NSCLC, 7.37 µM; in the experiment on LOX IMVI melanoma it was 3.08 µM; in the experiment on NCI-H226 lung it was 17.5 µM; with NCI-H522 lung it was 1.49 µM; in the experiment on NCI/ADR-RES ovarian it was 3.86 µM. For the same molecule, the figures for the GI50 in the experiment on OVCAR-5 ovarian, in the experiment on OVCAR-8 ovarian and in the experiment with SK-MEL-28 melanoma were 18.9 µM, 3.75 µM and 9.43 µM, respectively. For the same molecule, the TGI was more than 100 µM in the experiment with BT-549 breast; more than 100 µM in the experiment on EKVX NSCLC; 10.6 µM with LOX IMVI melanoma; 62.8 µM with NCI-H226 lung; 10.2 µM with NCI-H522 lung; more than 100 µM in the experiment with NCI/ADR-RES ovarian. Besides, the TGI was more than 100 µM with OVCAR-5 ovarian, 32.2 µM with OVCAR-8 ovarian and 57.2 µM with SK-MEL-28 melanoma.

`CC(NC(=O)C(N)Cc1ccccc1)C(=O)NC(Cc1ccc(O)cc1)C(=O)NC(Cc1c[nH]c2ccccc12)C(=O)NC(CCCCN)C(=O)NC(C(=O)NC(C)C(=O)NC(Cc1ccc2ccccc2c1)C(N)=O)C(C)C` (stereo not drawn) (H-FAYWKVA[2Nal]-NH2; configuration not given here): the results for the GI50 in the experiment with EKVX NSCLC, in the experiment on OVCAR-8 ovarian and with SK-MEL-28 melanoma were 25.9 µM, 37.2 µM and 53.4 µM, respectively. In addition, the TGI in the experiment with EKVX NSCLC is > 12.5 µM and 81 µM; in the experiment on LOX IMVI melanoma it was more than 12.5 µM; in the experiment with M14 melanoma, more than 12.5 µM; in the experiment on NCI-H226 lung, more than 12.5 µM; in the experiment with NCI-H522 lung it was more than 12.5 µM; in the experiment on NCI/ADR-RES ovarian, more than 12.5 µM. The TGI in the experiment with OVCAR-5 ovarian was more than 12.5 µM; in the experiment on OVCAR-8 ovarian it was more than 100 µM; in the experiment with SK-MEL-28 melanoma it was more than 100 µM.

As for `COc1ccc2cc(C(=O)/C=C/c3ccc(OC)c(OC)c3)ccc2c1`, the GI50 in the experiment with BT-549 breast was 21.1 µM; in the experiment with EKVX NSCLC, 22 µM; with LOX IMVI melanoma, 3.38 µM; in the experiment on M14 melanoma, 11.2 µM; with OVCAR-8 ovarian it was 14 µM; in the experiment on SK-MEL-28 melanoma, 33.7 µM. Moreover, the TGI in the experiment with BT-549 breast was 68.7 µM; in the experiment on EKVX NSCLC, 68.4 µM; in the experiment with LOX IMVI melanoma, more than 100 µM; with M14 melanoma, 25.7 µM; in the experiment with OVCAR-8 ovarian, 49.7 µM; in the experiment with SK-MEL-28 melanoma, 98.9 µM.

For `O=C(N/N=C/c1cc2ccccc2c2ccccc12)c1cc(O)c(O)c(O)c1`, the GI50 in the experiment with BT-549 breast is 3.74 µM; with LOX IMVI melanoma, 2.38 µM; with M14 melanoma it was 4.34 µM; with NCI-H226 lung it was 4.47 µM; with NCI-H522 lung, 2.06 µM; with NCI/ADR-RES ovarian it was 12.4 µM. Besides, the GI50 in the experiment with OVCAR-5 ovarian was 8.85 µM; in the experiment on OVCAR-8 ovarian, 3.72 µM; with SK-MEL-28 melanoma, 3.57 µM. Further, the TGI in the experiment with BT-549 breast is 16.8 µM; in the experiment with LOX IMVI melanoma it was 5.98 µM; in the experiment on M14 melanoma it was 18.2 µM; with NCI-H226 lung, 28.4 µM; with NCI-H522 lung, 5.64 µM; in the experiment with NCI/ADR-RES ovarian, more than 100 µM. The TGI in the experiment on OVCAR-5 ovarian is 25.7 µM; in the experiment on OVCAR-8 ovarian it was 15.6 µM; in the experiment on SK-MEL-28 melanoma it was 15.1 µM.

Turning to `O=C1C=C(Br)C(=O)C(Br)=C1`, the TGI in the experiment on EKVX NSCLC is more than 100 µM; in the experiment with LOX IMVI melanoma, more than 31.6 µM; in the experiment on M14 melanoma, more than 100 µM; in the experiment on NCI-H226 lung, more than 100 µM; in the experiment on NCI-H522 lung, more than 100 µM; in the experiment with OVCAR-5 ovarian, more than 100 µM. In addition, the TGI in the experiment with OVCAR-8 ovarian and in the experiment on SK-MEL-28 melanoma was more than 100 µM each time.

Consider `COc1ccc(/C=N/NC(=O)O)cc1`, for which the TGI in the experiment with BT-549 breast, in the experiment on EKVX NSCLC, in the experiment on LOX IMVI melanoma, in the experiment with M14 melanoma, in the experiment with NCI-H522 lung and in the experiment on NCI/ADR-RES ovarian was more than 100 µM in each case. Further, the TGI in the experiment with OVCAR-5 ovarian and in the experiment with SK-MEL-28 melanoma was more than 100 µM throughout.

`CNC(=O)OCc1nc(S(C)=O)n(C)c1COC(=O)NC` (stereo not drawn): the TGI was more than 100 µM in the experiment on EKVX NSCLC; more than 100 µM in the experiment with LOX IMVI melanoma; more than 48.3 µM in the experiment on M14 melanoma; more than 100 µM with NCI-H226 lung; more than 100 µM in the experiment on NCI-H522 lung; more than 100 µM with NCI/ADR-RES ovarian. For the same molecule, the TGI in the experiment with OVCAR-5 ovarian, in the experiment with OVCAR-8 ovarian and in the experiment with SK-MEL-28 melanoma was more than 100 µM each time.

On to `C=C(C)C1CC[C@]2(C(=O)O)CCC3(C)[C@H](CCC4[C@@]5(C)CC[C@H](OC6OC(CO)C(O)C6OC6OC(C)C(O)C(O)C6O)[C@@](C)(CO)C5CC[C@]43C)C12` (stereo partly drawn), for which the TGI in the experiment on EKVX NSCLC, in the experiment with LOX IMVI melanoma, with M14 melanoma, in the experiment with NCI-H226 lung, in the experiment with NCI-H522 lung and with OVCAR-5 ovarian was more than 100 µM each time. The TGI in the experiment on OVCAR-8 ovarian and in the experiment with SK-MEL-28 melanoma was more than 100 µM throughout.

As to `N#Cc1c(NC(=O)CCC(=O)O)ccc2ccccc12`, the TGI in the experiment with BT-549 breast, in the experiment on EKVX NSCLC, in the experiment on M14 melanoma, in the experiment on NCI-H226 lung, with NCI-H522 lung and in the experiment on NCI/ADR-RES ovarian was more than 100 µM in each case. The TGI in the experiment with OVCAR-5 ovarian, in the experiment on OVCAR-8 ovarian and with SK-MEL-28 melanoma was more than 100 µM each time.

For the molecule `N/C(=N\C(=S)N1CCCCC1)N1CCCCC1`, the TGI in the experiment with EKVX NSCLC, in the experiment with LOX IMVI melanoma, in the experiment on M14 melanoma, with NCI-H226 lung, in the experiment on NCI-H522 lung and in the experiment with OVCAR-5 ovarian was more than 100 µM each time. Moreover, the TGI in the experiment on OVCAR-8 ovarian and in the experiment with SK-MEL-28 melanoma was more than 100 µM in each case.

Take `Cc1ccc(NC(=O)SCCC(=O)O)cc1NC(=O)SCCC(=O)O`: the TGI in the experiment with EKVX NSCLC, in the experiment on LOX IMVI melanoma, in the experiment on M14 melanoma, with NCI-H226 lung, in the experiment on NCI-H522 lung and in the experiment on OVCAR-5 ovarian was more than 100 µM each time. The TGI with OVCAR-8 ovarian and in the experiment with SK-MEL-28 melanoma was more than 100 µM in each case.

As for `COC(=O)/C(=C/N1CCN(C(=O)c2ccco2)C1=S)C(C)=O`, the GI50 in the experiment with BT-549 breast is 3.48 µM; in the experiment with EKVX NSCLC it was 2.64 µM; in the experiment on LOX IMVI melanoma, 1.59 µM; in the experiment with M14 melanoma it was 10.7 µM; in the experiment on NCI/ADR-RES ovarian it was 22.2 µM; in the experiment on OVCAR-8 ovarian it was 27.8 µM. For the same molecule, the GI50 with SK-MEL-28 melanoma is 9.08 µM. Besides, the TGI with BT-549 breast was found to be 9.03 µM; in the experiment with EKVX NSCLC, 9.89 µM; in the experiment with LOX IMVI melanoma, 3.99 µM; in the experiment with M14 melanoma, 24.4 µM; in the experiment on NCI/ADR-RES ovarian, 56.8 µM; in the experiment with OVCAR-8 ovarian, 88.5 µM. This molecule also had a TGI in the experiment on SK-MEL-28 melanoma of 52.6 µM.
